Drawing on ChEMBL document CHEMBL1150819, “Microxine, a new cdc2 kinase inhibitor from the Australian marine sponge Microxina species” (J Nat Prod, 2001), this text covers Activity and IC50 for 1 compound.

In one assay the test system is A549. Kind of assay: Cytotoxicity against human A549 cells at 18 uM. The format is functional, cell-based.
The next assay concerns P388. In words: Cytotoxicity against mouse P388 cells at 18 uM. The assay is classed as functional, cell-based.
The target of assay [1] is T1, M-phase inducer phosphatase 1 (Homo sapiens) (UniProt P30304).
T1 sequence (whole entry): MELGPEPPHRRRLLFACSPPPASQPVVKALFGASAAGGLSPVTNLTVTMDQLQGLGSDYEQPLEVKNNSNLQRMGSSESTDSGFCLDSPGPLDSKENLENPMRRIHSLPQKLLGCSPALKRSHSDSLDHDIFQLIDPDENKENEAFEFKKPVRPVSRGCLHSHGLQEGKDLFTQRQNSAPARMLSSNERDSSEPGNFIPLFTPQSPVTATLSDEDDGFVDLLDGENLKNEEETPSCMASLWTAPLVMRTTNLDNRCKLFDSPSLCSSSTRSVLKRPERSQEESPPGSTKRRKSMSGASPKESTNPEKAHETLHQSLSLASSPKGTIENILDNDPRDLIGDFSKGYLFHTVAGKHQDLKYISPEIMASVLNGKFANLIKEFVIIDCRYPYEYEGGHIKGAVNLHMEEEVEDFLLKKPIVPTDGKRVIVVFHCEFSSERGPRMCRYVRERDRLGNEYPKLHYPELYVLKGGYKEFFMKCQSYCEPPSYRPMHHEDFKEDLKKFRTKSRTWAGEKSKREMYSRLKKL
Kind of assay: Inhibition of Cdc25a up to 10 uM.

Assay [2] concerns the target Cyclin-dependent kinase 1 (Homo sapiens, UniProt P06493).

Calls of active or inactive are those of the source. The calls are words filed in the database; no cut-off is given here.

Chain of Cyclin-dependent kinase 1 (P06493 whole entry): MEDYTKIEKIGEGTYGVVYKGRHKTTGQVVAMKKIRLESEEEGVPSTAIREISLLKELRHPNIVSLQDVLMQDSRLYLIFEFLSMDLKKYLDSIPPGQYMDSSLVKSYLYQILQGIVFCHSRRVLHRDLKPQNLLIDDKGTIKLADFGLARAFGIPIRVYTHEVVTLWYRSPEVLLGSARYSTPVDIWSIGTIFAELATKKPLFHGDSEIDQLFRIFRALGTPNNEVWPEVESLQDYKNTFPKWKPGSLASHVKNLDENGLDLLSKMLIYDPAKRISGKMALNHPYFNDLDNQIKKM

Turning to `Cn1c(=O)[nH]c2ncnc(NCCS(=O)(=O)O)c21` [MICROXINE], the result (with A549; in the assay on P388; in assay [1]) was inactive. Also, the half-inhibitory concentration (IC50) (usually the point on the concentration scale where inhibition reaches its midpoint) in assay [2] amounted to 13 µM.
